A short description of series [1]: Metabolic stability in human liver microsomes assessed as parent compound remaining. It is filed as ADME, Microsome.
Series [2] can be described thus: Metabolic stability in mouse liver microsomes assessed as parent compound remaining. It is filed as ADME, Microsome.
Series [3] addresses T1, Nuclear receptor subfamily 1 group I member 2 (Homo sapiens, UniProt O75469).
T1 sequence (O75469 whole entry): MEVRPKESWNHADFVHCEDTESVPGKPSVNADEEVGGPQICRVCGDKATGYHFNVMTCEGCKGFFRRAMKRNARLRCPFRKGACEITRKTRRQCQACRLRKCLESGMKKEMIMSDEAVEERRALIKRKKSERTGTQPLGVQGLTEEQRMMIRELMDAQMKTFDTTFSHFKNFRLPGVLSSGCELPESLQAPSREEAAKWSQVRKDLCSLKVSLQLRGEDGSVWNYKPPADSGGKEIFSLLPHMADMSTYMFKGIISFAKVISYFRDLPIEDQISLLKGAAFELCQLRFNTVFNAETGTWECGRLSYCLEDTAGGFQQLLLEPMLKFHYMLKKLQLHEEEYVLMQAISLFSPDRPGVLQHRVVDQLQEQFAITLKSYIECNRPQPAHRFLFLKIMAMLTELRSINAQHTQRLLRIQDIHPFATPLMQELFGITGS
Nature of the series: Inhibition of PXR (unknown origin). To be noted: dose >50 µM.

Series [4] addresses T2, Cytochrome P450 1A2 (Homo sapiens, UniProt P05177).
T2 sequence (P05177 whole entry): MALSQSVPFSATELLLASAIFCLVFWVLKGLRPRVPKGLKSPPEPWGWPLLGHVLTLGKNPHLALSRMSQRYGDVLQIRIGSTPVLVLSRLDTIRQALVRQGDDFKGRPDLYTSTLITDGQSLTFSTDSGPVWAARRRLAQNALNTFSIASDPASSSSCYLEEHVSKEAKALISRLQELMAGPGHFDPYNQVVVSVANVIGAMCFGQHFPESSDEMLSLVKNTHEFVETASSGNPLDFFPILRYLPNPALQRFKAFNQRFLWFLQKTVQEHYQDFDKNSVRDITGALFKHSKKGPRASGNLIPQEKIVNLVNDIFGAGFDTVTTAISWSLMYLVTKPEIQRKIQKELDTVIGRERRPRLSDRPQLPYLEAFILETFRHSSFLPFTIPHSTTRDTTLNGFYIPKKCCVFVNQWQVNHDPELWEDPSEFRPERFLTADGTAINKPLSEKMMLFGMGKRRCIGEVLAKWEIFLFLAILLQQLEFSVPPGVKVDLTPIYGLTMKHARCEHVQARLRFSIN
Nature of the series: Inhibition of recombinant CYP1A2 (unknown origin). It is filed as ADME. To be noted: recombinant enzyme, dose >10 µM.

Series [5] has as its target T3, Cytochrome P450 2C8 (Homo sapiens, UniProt P10632).
T3 sequence (P10632 whole entry): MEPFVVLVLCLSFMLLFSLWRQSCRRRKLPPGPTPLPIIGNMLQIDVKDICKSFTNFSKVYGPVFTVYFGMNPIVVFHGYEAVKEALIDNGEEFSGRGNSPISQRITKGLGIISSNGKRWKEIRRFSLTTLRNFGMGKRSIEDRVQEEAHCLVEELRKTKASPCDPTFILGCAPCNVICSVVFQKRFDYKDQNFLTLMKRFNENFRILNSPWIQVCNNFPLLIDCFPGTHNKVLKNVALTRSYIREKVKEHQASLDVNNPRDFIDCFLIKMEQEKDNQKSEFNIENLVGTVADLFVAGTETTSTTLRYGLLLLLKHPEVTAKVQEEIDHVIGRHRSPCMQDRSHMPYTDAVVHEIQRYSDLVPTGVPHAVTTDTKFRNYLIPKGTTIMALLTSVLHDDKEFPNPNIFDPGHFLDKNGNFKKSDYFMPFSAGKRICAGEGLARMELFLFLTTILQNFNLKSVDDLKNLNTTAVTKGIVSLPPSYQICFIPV
Nature of the series: Inhibition of recombinant CYP2C8 (unknown origin). It is filed as ADME. To be noted: recombinant enzyme, dose >10 µM.

Series [6] concerns the target Cytochrome P450 2C9 (Homo sapiens, UniProt P11712). Nature of the series: Inhibition of recombinant CYP2C9 (unknown origin). It is filed as ADME. Particulars: recombinant enzyme, dose >10 µM.
Series [7] addresses Cytochrome P450 2C19 (Homo sapiens, UniProt P33261). Nature of the series: Inhibition of recombinant CYP2C19 (unknown origin). It is filed as ADME. To be noted: recombinant enzyme, dose >10 µM.
Series [8] has as its target Cytochrome P450 2D6 (Homo sapiens, UniProt P10635). Nature of the series: Inhibition of recombinant CYP2D6 (unknown origin). It is filed as ADME. To be noted: recombinant enzyme, dose >10 µM.
Series [9] can be described thus: Metabolic stability in human liver microsomes assessed as half life.
Series [10] in a line: Metabolic stability in mouse liver microsomes assessed as half life.
Series [11] in a line: Permeability from apical side to basolateral side in human Caco-2 cells. It is filed as ADME, cell-based. To be noted: read-out: permeability.
Series [12] in a line: Protein binding in human serum assessed as unbound fraction. It is filed as ADME, cell-free.
Series [13] is described as follows: Protein binding in mouse serum assessed as unbound fraction. It is filed as ADME, cell-free.

Some results are limits rather than exact numbers.

Cytochrome P450 2C19, sequence (P33261 whole entry): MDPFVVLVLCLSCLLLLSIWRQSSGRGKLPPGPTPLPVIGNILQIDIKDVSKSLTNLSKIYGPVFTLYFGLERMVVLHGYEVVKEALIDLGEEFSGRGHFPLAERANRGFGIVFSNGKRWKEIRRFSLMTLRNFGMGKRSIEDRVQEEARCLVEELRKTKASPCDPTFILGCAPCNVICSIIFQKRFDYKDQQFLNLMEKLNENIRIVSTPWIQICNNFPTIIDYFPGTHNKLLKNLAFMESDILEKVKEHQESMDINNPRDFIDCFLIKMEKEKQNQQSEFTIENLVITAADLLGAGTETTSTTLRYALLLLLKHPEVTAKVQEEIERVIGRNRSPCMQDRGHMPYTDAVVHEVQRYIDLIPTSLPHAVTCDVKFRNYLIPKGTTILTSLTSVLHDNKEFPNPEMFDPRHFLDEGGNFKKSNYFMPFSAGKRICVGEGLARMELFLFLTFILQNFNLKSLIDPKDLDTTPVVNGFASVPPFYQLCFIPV
Cytochrome P450 2C9, sequence (P11712 whole entry): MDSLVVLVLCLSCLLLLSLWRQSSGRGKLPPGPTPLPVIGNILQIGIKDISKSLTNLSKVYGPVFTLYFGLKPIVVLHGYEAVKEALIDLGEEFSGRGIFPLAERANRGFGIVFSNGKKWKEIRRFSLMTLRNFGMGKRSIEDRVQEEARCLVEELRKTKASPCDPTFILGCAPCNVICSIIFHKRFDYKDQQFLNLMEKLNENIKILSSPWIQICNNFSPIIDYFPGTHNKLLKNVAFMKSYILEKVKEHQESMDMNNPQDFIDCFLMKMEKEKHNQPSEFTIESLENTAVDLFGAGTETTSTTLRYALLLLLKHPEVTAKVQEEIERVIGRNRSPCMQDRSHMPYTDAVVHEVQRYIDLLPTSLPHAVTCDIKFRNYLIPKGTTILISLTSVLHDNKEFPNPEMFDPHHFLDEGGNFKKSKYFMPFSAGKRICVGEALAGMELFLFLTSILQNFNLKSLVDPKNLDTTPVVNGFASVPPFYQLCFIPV
Cytochrome P450 2D6, sequence (P10635 whole entry): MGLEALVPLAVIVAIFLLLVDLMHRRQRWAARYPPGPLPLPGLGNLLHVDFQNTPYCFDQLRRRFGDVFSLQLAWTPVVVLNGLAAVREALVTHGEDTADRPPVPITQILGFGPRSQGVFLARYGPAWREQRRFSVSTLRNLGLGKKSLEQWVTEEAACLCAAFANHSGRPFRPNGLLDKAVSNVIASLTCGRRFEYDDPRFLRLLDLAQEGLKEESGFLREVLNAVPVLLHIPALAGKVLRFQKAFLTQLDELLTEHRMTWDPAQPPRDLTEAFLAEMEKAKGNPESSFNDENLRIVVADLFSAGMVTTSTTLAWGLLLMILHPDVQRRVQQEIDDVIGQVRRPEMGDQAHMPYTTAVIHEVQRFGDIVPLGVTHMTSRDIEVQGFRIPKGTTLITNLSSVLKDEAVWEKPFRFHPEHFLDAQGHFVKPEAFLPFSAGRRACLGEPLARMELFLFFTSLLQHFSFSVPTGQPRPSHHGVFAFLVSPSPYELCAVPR

Consider `O=C(NCC1(O)CCCCC1)[C@@H]1CC[C@@]2(S(=O)(=O)c3ccc(F)cc3)c3ccc(C(F)(C(F)(F)F)C(F)(F)F)cc3CC[C@@H]12`, for which the Stabilty is given as 5% in [1] and 38% in series [2].

As to `C[C@H](CO)NC(=O)[C@@H]1CC[C@@]2(S(=O)(=O)c3ccc(F)cc3)c3ccc(C(F)(C(F)(F)F)C(F)(F)F)cc3CC[C@@H]12`, the Stabilty in series [1] is listed as 46%; in [2], 39%.

As to `O=C(NCC1(O)CCCC1)[C@@H]1CC[C@@]2(S(=O)(=O)c3ccc(F)cc3)c3ccc(C(F)(C(F)(F)F)C(F)(F)F)cc3CC[C@@H]12`, the values for the Stabilty in [1] and in [2] were 22% and 41%, respectively.

As for `CC(C)(O)CNC(=O)[C@@H]1CC[C@@]2(S(=O)(=O)c3ccc(F)cc3)c3ccc(C(F)(C(F)(F)F)C(F)(F)F)cc3CC[C@@H]12`, the Stabilty in series [1] is recorded as 99%; in series [2], 77%. For the same molecule, the INH is more than 50 µM in series [3]; more than 10 µM in series [4]; more than 10 µM in series [5]; more than 10 µM in series [6]; more than 10 µM in series [7]; more than 10 µM in [8]. Further, the half-life in [9] was found to be 1.35 h; in series [10], 0.683 h. For the same molecule, the Papp A→B in series [11] was 15 ×10⁻⁶ cm/s. Also, the Fu in series [12] was 0.5%; in [13], 0.4%.

As for `C[C@H](O)CNC(=O)[C@@H]1CC[C@@]2(S(=O)(=O)c3ccc(F)cc3)c3ccc(C(F)(C(F)(F)F)C(F)(F)F)cc3CC[C@@H]12`, the Stabilty is recorded as 34% in [1] and 41% in series [2].

Consider `C[C@@H](CO)NC(=O)[C@@H]1CC[C@@]2(S(=O)(=O)c3ccc(F)cc3)c3ccc(C(F)(C(F)(F)F)C(F)(F)F)cc3CC[C@@H]12`, for which the figures for the Stabilty in series [1] and in series [2] were 53% and 55%, respectively.

Consider `O=C(NCC1(O)CCC1)[C@@H]1CC[C@@]2(S(=O)(=O)c3ccc(F)cc3)c3ccc(C(F)(C(F)(F)F)C(F)(F)F)cc3CC[C@@H]12`, for which the Stabilty in [1] came to 74%; in series [2], 57%.

`O=C(NC[C@H](O)C(F)(F)F)[C@@H]1CC[C@@]2(S(=O)(=O)c3ccc(F)cc3)c3ccc(C(F)(C(F)(F)F)C(F)(F)F)cc3CC[C@@H]12`: the Stabilty in series [1] and in [2] was 100% throughout.

Consider `C[C@@H](O)CNC(=O)[C@@H]1CC[C@@]2(S(=O)(=O)c3ccc(F)cc3)c3ccc(C(F)(C(F)(F)F)C(F)(F)F)cc3CC[C@@H]12`, for which the Stabilty in series [1] is recorded as 56%; in [2], 51%.

As for `CC(C)(O)C(C)(C)NC(=O)[C@@H]1CC[C@@]2(S(=O)(=O)c3ccc(F)cc3)c3ccc(C(F)(C(F)(F)F)C(F)(F)F)cc3CC[C@@H]12`, the Stabilty in [1] was 75%; in series [2], 14%.

Regarding `O=C(NCC1(O)CC1)[C@@H]1CC[C@@]2(S(=O)(=O)c3ccc(F)cc3)c3ccc(C(F)(C(F)(F)F)C(F)(F)F)cc3CC[C@@H]12`, the Stabilty in [1] was 19%; in series [2], 26%.

On to `O=C(NCCO)[C@@H]1CC[C@@]2(S(=O)(=O)c3ccc(F)cc3)c3ccc(C(F)(C(F)(F)F)C(F)(F)F)cc3CC[C@@H]12`, for which the Stabilty was 86% in series [1] and 78% in [2].

These data come from ChEMBL document CHEMBL4673237, “Annulation reaction enables the identification of an exocyclic amide tricyclic chemotype as retinoic acid Receptor-Related orphan receptor gamma (RORγ/RORc) inverse agonists” (Bioorg Med Chem Lett, 2020).
